From the supplement of paper PMC8149375

Assays:
Details in all cases: treatment: drug alone; 5 days
769-P [1] = experiment: GI50, drug alone; higher = less potent
Procedure: (§1)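 Primary HTS: 8 RCC cell lines treated with 8 doses (up to 10 uM) of each library drug alone for 5 days; viability read by CellTiter-Glo and normalised to DMSO. GI50 was fitted with XLfit (4-parameter), AUC is the area under the dose-response curve, and minimum viability is the lowest fraction of DMSO viability across doses.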

786-O [2] = experiment: GI50, drug alone; higher = less potent
Procedure: as §1

A498 [3] = experiment: GI50, drug alone; higher = less potent
Procedure: as §1

ACHN [4] = experiment: GI50, drug alone; higher = less potent
Procedure: as §1

CAKI-1 [5] = experiment: GI50, drug alone; higher = less potent
Procedure: as §1

SN12C [6] = experiment: GI50, drug alone; higher = less potent
Procedure: as §1

TK-10 [7] = experiment: GI50, drug alone; higher = less potent
Procedure: as §1

UO-31 [8] = experiment: GI50, drug alone; higher = less potent
Procedure: as §1

769-P [9] = experiment: minimum viability across doses, drug alone, relative to DMSO (fraction); higher = less growth inhibition
Procedure: as §1

786-O [10] = experiment: as above
Procedure: as §1

A498 [11] = experiment: as above
Procedure: as §1

ACHN [12] = experiment: as above
Procedure: as §1

CAKI-1 [13] = experiment: as above
Procedure: as §1

SN12C [14] = experiment: as above
Procedure: as §1

TK-10 [15] = experiment: as above
Procedure: as §1

UO-31 [16] = experiment: as above
Procedure: as §1

769-P [17] = experiment: AUC of dose-response viability curve, drug alone (arbitrary (AUC of normalised viability)); higher = less growth inhibition
Procedure: as §1

786-O [18] = experiment: as above
Procedure: as §1

A498 [19] = experiment: as above
Procedure: as §1

ACHN [20] = experiment: as above
Procedure: as §1

CAKI-1 [21] = experiment: as above
Procedure: as §1

SN12C [22] = experiment: as above
Procedure: as §1

TK-10 [23] = experiment: as above
Procedure: as §1

UO-31 [24] = experiment: as above
Procedure: as §1

Row | SMILES | GI50, drug alone (769-P [1]) [µM] | GI50, drug alone (786-O [2]) [µM] | GI50, drug alone (A498 [3]) [µM] | GI50, drug alone (ACHN [4]) [µM] | GI50, drug alone (CAKI-1 [5]) [µM] | GI50, drug alone (SN12C [6]) [µM] | GI50, drug alone (TK-10 [7]) [µM] | GI50, drug alone (UO-31 [8]) [µM] | minimum viability across doses (769-P [9]) | minimum viability across doses (786-O [10]) | minimum viability across doses (A498 [11]) | minimum viability across doses (ACHN [12]) | minimum viability across doses (CAKI-1 [13]) | minimum viability across doses (SN12C [14]) | minimum viability across doses (TK-10 [15]) | minimum viability across doses (UO-31 [16]) | AUC of dose-response viability curve (769-P [17]) | AUC of dose-response viability curve (786-O [18]) | AUC of dose-response viability curve (A498 [19]) | AUC of dose-response viability curve (ACHN [20]) | AUC of dose-response viability curve (CAKI-1 [21]) | AUC of dose-response viability curve (SN12C [22]) | AUC of dose-response viability curve (TK-10 [23]) | AUC of dose-response viability curve (UO-31 [24])
1 | COc1cc(OC)c(/C=C/S(=O)(=O)Cc2ccc(OC)c(NCC(=O)[O][Na])c2)c(OC)c1 | 0.0821 | 0.0233 | 0.0912 | 0.123 | 0.0743 | 0.216 | 0.327 | 0.0855 | 0.0669 | 0.00295 | 0.154 | 0.102 | 0.119 | 0.124 | 0.273 | 0.0069 | 1.49 | 0.88 | 1.91 | 1.7 | 1.63 | 2.01 | 2.13 | 1.46
2 | COc1cc2ncnc(Nc3cccc(Br)c3)c2cc1OC.Cl | 1.49 | 6.69 | > 10 | 0.582 | 8.68 | > 10 | 1.36 | 6.95 | 0.357 | 0.00889 | 0.923 | 0.268 | 0.378 | 0.825 | 0.181 | 0.0153 | 2.36 | 2.81 | 4.63 | 2.07 | 2.92 | 3.17 | 2.36 | 4.18
3 | c1ccc2c(-c3cnn4cc(-c5ccc(N6CCNCC6)cc5)cnc34)ccnc2c1 | 2.6 | 8.26 | 8.21 | 2.01 | 1.63 | 2.8 | 7.73 | 7.44 | 0.00246 | 0.0032 | 0.00414 | 0.00139 | 0.00218 | 0.00261 | 0.00522 | 0.00507 | 2.86 | 3.55 | 3.76 | 2.68 | 2.96 | 2.88 | 2.64 | 6.11
4 | NCC(=O)Nc1ccc(-n2nc(C(F)(F)F)cc2-c2ccc3c(ccc4ccccc43)c2)cc1 | 3.77 | 1.62 | 3.22 | 4.51 | 4.52 | 4.07 | 4.25 | 0.928 | 0.0386 | 0.00641 | 0.0189 | 0.0447 | 0.0096 | 0.00771 | 0.326 | 0.00932 | 2.96 | 2.29 | 3.01 | 3.11 | 3.25 | 3.13 | 2.74 | 2.76
5 | O=C(NOCC(O)CO)c1cc(Br)c(F)c(F)c1Nc1ccc(I)cc1F (configuration not stated) | 4.98 | 0.448 | > 10 | 1.99 | 1.25 | > 10 | 2.84 | > 10 | 0.427 | 0.263 | 0.89 | 0.372 | 0.202 | 0.602 | 0.419 | 0.816 | 2.62 | 1.94 | 3.58 | 2.42 | 2.32 | 2.83 | 2.4 | 3.29
6 | Cc1cnc(NC(=O)Nc2cc(Br)c(C)cc2OC[C@@H]2CNCCO2)cn1 | > 10 | 0.342 | 3.57 | 0.161 | 1.39 | 4.66 | 0.58 | 0.745 | 0.0604 | 0.00129 | 0.0991 | 0.0243 | 0.145 | 0.175 | 0.156 | 0.00586 | 2.27 | 2 | 3.76 | 1.82 | 2.83 | 3.07 | 2.25 | 3.67
7 | C[C@@H]1CN(CC(=O)Nc2ccc3c(c2)Cc2cccc(-c4cc(=O)cc(N5CCOCC5)o4)c2S3)C[C@H](C)O1 | > 10 | 6.61 | > 10 | > 10 | 4 | > 10 | > 10 | > 10 | 0.855 | 0.35 | 0.893 | 0.548 | 0.224 | 0.646 | 0.701 | 1.35 | 3.53 | 3.37 | 4.69 | 3.15 | 2.8 | 3.35 | 3.25 | 6.19
8 | O=c1cc(N2CCOCC2)oc2c(-c3cccc4c3sc3ccccc34)cccc12 | 9.84 | 3.26 | > 10 | 6.82 | 2.78 | > 10 | 9.09 | > 10 | 0.489 | 0.0967 | 0.62 | 0.35 | 0.184 | 0.561 | 0.447 | 0.476 | 3.36 | 2.69 | 3.5 | 3.44 | 2.74 | 3.26 | 3.15 | 3.93
9 | O=C(NOC[C@H](O)CO)c1ccc(F)c(F)c1Nc1ccc(I)cc1F | 0.928 | 0.221 | 3.71 | 0.857 | 0.32 | 2.34 | 0.848 | 3.24 | 0.282 | 0.373 | 0.455 | 0.359 | 0.161 | 0.389 | 0.348 | 0.257 | 2.27 | 1.88 | 2.54 | 2.15 | 1.95 | 2.31 | 2.1 | 2.63
10 | O=c1cc(N2CCOCC2)oc2c(-c3ccccc3)cccc12 | > 10 | > 10 | > 10 | > 10 | > 10 | > 10 | > 10 | > 10 | 0.617 | 0.559 | 0.929 | 0.723 | 0.642 | 0.765 | 0.684 | 0.858 | 3.1 | 2.62 | 3.75 | 2.91 | 3.37 | 3.36 | 2.97 | 3.98
11 | COc1cccc(-c2cc(=O)c3ccccc3o2)c1N | > 10 | > 10 | > 10 | > 10 | > 10 | > 10 | > 10 | > 10 | 0.903 | 0.69 | 1.03 | 0.861 | 0.83 | 0.873 | 0.817 | 1.36 | 3.39 | 2.79 | 4.28 | 3.35 | 3.19 | 3.4 | 3.09 | 5.36
12 | O=c1cc(-c2cccc3c2Sc2ccccc2S3)oc(N2CCOCC2)c1 | > 10 | > 10 | > 10 | 0.0705 | > 10 | > 10 | > 10 | > 10 | 0.864 | 0.638 | 0.864 | 0.496 | 0.648 | 0.864 | 0.791 | 0.981 | 3.21 | 2.98 | 3.49 | 2.57 | 3.06 | 3.23 | 3.14 | 4
13 | C=CC(=O)N1CCC[C@@H](n2nc(-c3ccc(Oc4ccccc4)cc3)c3c(N)ncnc32)C1 | 1.83 | > 10 | > 10 | 3.93 | 7.05 | > 10 | 1.43 | > 10 | 0.301 | 0.529 | 0.946 | 0.394 | 0.335 | 0.706 | 0.225 | 0.949 | 2.53 | 2.3 | 6.43 | 2.53 | 3.19 | 2.88 | 2.31 | 4.29
14 | Cc1cc(Nc2cc(CN3CCOCC3)c3nc(C)c(Cc4ccc(Cl)cc4F)n3n2)[nH]n1 | 4.13 | 0.3 | 8.52 | 1.98 | 2.28 | 3.84 | 3.03 | 7.64 | 0.063 | 0.00692 | 0.338 | 0.103 | 0.0334 | 0.216 | 0.0389 | 0.0145 | 3.12 | 1.96 | 4.33 | 2.79 | 3.03 | 2.89 | 2.8 | 4.69
15 | CN1CCN(c2ccc([N+](=O)[O-])c3no[n+]([O-])c23)CC1 | > 10 | > 10 | > 10 | > 10 | > 10 | > 10 | > 10 | > 10 | 0.865 | 0.536 | 0.889 | 0.822 | 0.881 | 0.832 | 0.3 | 0.867 | 2.59 | 2.38 | 3.92 | 2.98 | 3.27 | 3.13 | 2.91 | 3.8
16 | CC(C)(C)Cn1c(N)nc2ccc(-c3[nH]c(C(C)(C)C)nc3-c3ccc(F)cc3)nc21.CS(=O)(=O)O.CS(=O)(=O)O | > 10 | > 10 | > 10 | 2.19 | 8.16 | > 10 | 6.63 | > 10 | 0.709 | 0.636 | 0.972 | 0.407 | 0.512 | 0.811 | 0.564 | 0.733 | 2.98 | 2.91 | 4.16 | 2.41 | 2.63 | 3.15 | 2.43 | 3.5
17 | CC(=O)c1c(C)c2cnc(Nc3ccc(N4CCNCC4)cn3)nc2n(C2CCCC2)c1=O.Cl | 0.659 | 3.88 | > 10 | 0.36 | 0.811 | 7.21 | 1.44 | > 10 | 0.0631 | 0.298 | 0.644 | 0.136 | 0.123 | 0.427 | 0.185 | 0.549 | 2.31 | 2.8 | 4.74 | 2.04 | 2.44 | 3.17 | 2.43 | 4.32
18 | CCN(CC)CCCCNc1ncc2cc(-c3cc(OC)cc(OC)c3)c(NC(=O)NC(C)(C)C)nc2n1 | 9.27 | 2.36 | 6.94 | 0.779 | 0.614 | 8.23 | 4.78 | 7.93 | 0.461 | 0.00314 | 0.265 | 0.0868 | 0.074 | 0.338 | 0.348 | 0.128 | 3.21 | 2.06 | 3.77 | 2.2 | 2.27 | 2.73 | 2.69 | 3.7
